Source: patent publication US5981517A, “Androstene derivatives” (priority 1997, dated 1999)

Columns and labels:
[1] = test system: forearm of a human volunteer; test: Human vasoconstriction test; assay type: in vivo; design: key: 0 = normal skin, 4 = very intense pallor; settings: 10 mM
[2] = Stability in lung homogenate; assay type: in vitro ADME; settings: rat; 6-volume diluted lung homogenate, 0.1 mM, 37° C.; read-out: Half-life (t1/2), Lung
Method: (§1) A Whatman C-18 column (4.6 mm×108 mm) was connected to a Spectra-Physics component system consisting of a SP 8810 precision isocratic pump, Rheodyne 7125 injector (20 μL injection volume), SP 8450 UV/VIS variable wavelength detector (230 nm), and SP 4290 integrator. The system was operated at ambient temperature. The mobile phase consisted of acetonitrile, acetic acid and water (60:0.1:40). At a flow rate of 1.0 mL/minute, the retention times for the test compounds were 4.74 minutes for Compound A, 5.84 minutes for Compound B, 6.93 minutes for Compound C, and 5.72 minutes for Compound D.
(§2) HPLC peak area and peak height were used as a measure of the concentration of the test compounds and plotted against time to evaluate the disappearance rates of the compounds. The stability was determined by measuring the pseudo-first order rate constant (kobs in min^-1) or half-life (t1/2 in min) of disappearance of the test compound in buffer. […].
(§3) A 0.2 mL aliquot of stock solution (1 mM) of each of the test compounds A, B, C, and D, was added to 2 mL of each biological media (whole heparinized rat blood, 20% rat liver homogenate, and 6-volume diluted lung homogenate in isotonic buffer of pH 7.40 made by combining 0.05 M of Na2 HPO4 and 0.05 M of NaH2 PO4 with 0.05 M of NaCl), which was kept in a 37° C. water bath, to obtain a final concentration of 0.1 mM in each biological medium. Samples of 0.1 mL were taken at appropriate time intervals for 2 hours (at 0, 3, 5, 10, 20, 40, 60, 90 and 120 minutes) and mixed with 0.2 mL of acetonitrile containing 5% DMSO. Each mixture was centrifuged and the supernatant was injected in the HPLC.

physchem = assay type: physicochemical
Method: as §1, §2
The stabilities of test compounds A, B, C, and D, were tested in buffer solutions in the pH range of 4.0 to 9.0. A 0.1 mL portion of each compound at a concentration of 1 mM was mixed with 10 mL phosphate buffer (made by combining 0.05 M of NaH2 PO4 and 0.05 M of Na2 HPO4 with 0.05 M of NaCl) to give a final concentration of 0.01 mM. The mixtures were incubated at 37° C., and samples were taken and injected in the HPLC system at appropriate time intervals. pH profiles of each test compound are shown in TABLE III below. […]

[3] = Stability in liver homogenate; assay type: in vitro ADME, rat; settings: 20% rat liver homogenate, 0.1 mM, 37° C.; read-out: Half-life (t1/2), Liver
Method: as §1, §2, §3

Stability in rat plasma = assay type: in vitro ADME; settings: rat plasma, 100 μM, 37° C.
Method: (§4) A Waters NOVA-PAK phenyl column was connected to a Spectra-Physics component system consisting of a SP 8810 precision isocratic pump, a Rheodyne 7125 injector (injection volume 20 μL), an SP 8450 UV/VIS variable wavelength detector (operated at 254 nm) and a SP 4270 integrator. […]. The retention times of compound of the invention J and its metabolities L and M were 8.64, 2.70 and 2.45 minutes, respectively. The retention times of compound of the invention I and its metabolites N and 0 were 5.84, 2.70 and 1.81 minutes, respectively. The retention time of cortienic acid was 1.00 minute.
(§5) Freshly collected human or rat plasma was used. An aliquot of 10 mM test compound in ethanol solution was added to prewarmed (37° C.) plasma to yield a final concentration of 100 μM. At appropriate time intervals, samples (0.1 mL) were removed and mixed with 0.2 mL of 5% dimethylsulfoxide/acetonitrile solution. Mixtures were centrifuged and supernatants were analyzed by HPLC. The pseudo-first order rate constant of the disappearance of compound in the biological media was determined by linear regression analysis from the plot of log peak area and peak height versus time.
(§6) Stability was evaluated by the pseudo first-order rate constant (k, hr^-1) and half-life (t1/2, hr) of the disappearance of the test compound in the media.

Stability in rat blood = assay type: in vitro ADME; settings: rat blood, 0.1 mM, 37° C.; read-out: Half-life (t1/2), Blood
Method: as §1, §2, §3

[4] = Stability in human plasma; assay type: in vitro ADME; settings: human plasma, 100 μM, 37° C.
Method: as §4, §5, §6

Compound `CCOC(=O)[C@@]1(OC(=O)C(Cl)Cl)CC[C@H]2[C@@H]3CCC4=CC(=O)C=C[C@]4(C)[C@H]3[C@@H](O)C[C@@]21C` [Compound B, Ethyl 17α-dichloroacetoxy-11β-hydroxyandrosta-1,4-dien-3-one-17β-carboxylate] has a Vasoconstriction activity ([1]; 1 hour after patch removal) of 3, a Vasoconstriction activity ([1]; 8 hours after patch removal) of 4 and a Vasoconstriction activity ([1]; 17 hours after patch removal) of 4. It also gave a Vasoconstriction activity ([1]; 24 hours after patch removal) of 4, a half-life at 100 µM [2] of 2.29 h and a half-life (physchem; aqueous phosphate buffer, pH 4.5) greater than 48 h. It also gave a half-life (physchem; aqueous phosphate buffer, pH 6.56) of 16.7 h, a half-life (physchem; aqueous phosphate buffer, pH 7.4) of 5.08 h and a half-life (physchem; aqueous phosphate buffer, pH 8.08) of 0.867 h. For the same compound, the half-life (physchem; aqueous phosphate buffer, pH 9) was 0.144 h, the half-life (physchem; buffer, pH 7.4) was 5.08 h and the half-life at 100 µM [3] was 0.313 h. The “k (pseudo first-order rate constant)” value (Stability in rat plasma) was 0.136 h⁻¹, the half-life at 100 µM (Stability in rat plasma; read-out: t1/2 (converted)) was 5.08 h and the half-life at 100 µM (Stability in rat blood) was 1.29 h. For the same compound, the “k (pseudo first-order rate constant)” value [4] was 0.138 h⁻¹ and the half-life at 100 µM ([4]; read-out: t1/2 (converted)) was 5.03 h.
